Measured values as given in patent publication US8758767B2, “Antigens targeted by prevalent pathogennic T cells in type 1 diabetes and uses thereof” (Albert Einstein College of Medicine of Yeshiva University, priority 2003, dated 2014).
Blank lines part the entries; values can stand above or below the substance they belong to.

Assays:
[1] = target: IGRP206-214/H-2K^d on antigen-presenting cells (mouse) (UniProt P01902); test: cell-based or functional assay
[2] = test system: CD8+ cells propagated from islets of NOD mice; test: IFN-γ secretion by islet-derived CD8+ T-cells in response to IGRP peptides; format: cell-based, mouse; conditions: peptide 10 μM, pre-diabetic or acutely diabetic NOD mice
Description: Islet-derived CD8+ T-cells from peptide-treated or unmanipulated NOD mice were generated by culturing pancreatic islets in complete media (CM: RPMI 1640 media containing 10% fetal bovine serum), containing 0.5 U/ml Takeda rhIL-2 (10-50 islets/well in 24-well plates). The in vivo-activated, IL-2R+ lymphocytes migrating from islets into the culture media were used in functional assays within 6-9 days of islet isolation (Amrani et al., 2000; Anderson et al., 1999).
(§1) Naïve splenic CD8+ T-cells from 8.3-NOD mice (2×10^4/well) were incubated with peptide-pulsed (0.001, 0.01, 0.1, 1 and/or 10 μM) γ-irradiated NOD splenocytes (10^5/well) in 96-well plates for 48 hours at 37° C. Short-term islet-derived T-cell lines from peptide-treated or unmanipulated NOD mice (adjusted at 2×10^4 CD8+ T-cells/well) were tested the same way, but using 10 μM of peptide. The supernatants (100 μl/well) were assayed in duplicate for IL-2, IL-4, and/or IFN-γ content by ELISA using commercially available kits (Genzyme Diagnostics, Cambridge, Mass.).

[3] = test system: CD8+ cells derived from pancreatic islets of wild-type NOD mice; test: Tetramer staining and avidity of NOD islet-derived CD8+ T-cells (Example 3); format: cell-based, mouse; conditions: FIG. 9B, at least some animals
Experimental: Tetramers were prepared and used as described in (Amrani et al., 2000). Hand-picked pancreatic islets from individual mice were cultured in complete media supplemented with 0.5 U/ml of Takeda rhIL-2 for 7-9 days. T-cells (10^6 per 20 μl) were then stained for 45 minutes on ice in 20 μl of wash media (0.2% sodium bicarbonate, 0.1% sodium azide and 2% FBS in RPMI-1640) containing anti-CD8-FITC (clone YTS169.4; 0.5 μg) and tetramer (85.5 nM). After washing, the cells were resuspended in wash media and analyzed with a flow cytometer (Becton Dickinson). For the analysis of tetramer staining at equilibrium, T-cells were stained for 2 hours at room temperature with 20 μl of wash media (0.2% sodium bicarbonate, 0.1% sodium azide and 2% FBS in RPMI-1640) containing anti-CD8α-FITC (clone YTS169.4; 0.5 μg) and different concentrations of tetramers (8.55, 17.1, 42.75 and 85.5 nM). After washing, cells were resuspended in 100 μl of wash media, fixed in 0.4% paraformaldehide and analyzed with a flow cytometer. The apparent Kd values were determined by plotting the negative reciprocal of the slope of the line fit to Scatchard plots of fluorescence units (median of CD8+ population tetramer staining)/nM versus fluorescence units.

female NOD mice = test: Repeated peptide treatment of female NOD mice, diabetes development and islet-associated CD8+ T-cells; format: in vivo, mouse; conditions: for avidity of NRP-V7 tetramer binding by islet-associated CD8+ cells of treated mice: NRP-I4 100 μg/injection, NRP-A7 50 μg/injection, vs TUM-treated mice; for protection from diabetes by chronic treatment (discussion summary): intermediate doses NRP-A7, high doses NRP-I4, low or high doses NRP-V7, high doses IGRP206-214; for T-cell responses against IGRP epitopes of islet-derived CD8+ T-cells of treated mice: for IGRP206-214 treatment: other IGRP epitopes; for absolute number of NRP-V7-reactive T-cells in the islets: NRP-A7 50 μg/injection vs. TUM-treated mice
Experimental: Cohorts of 3-to-4 week-old female NOD mice were injected with 1-100 μg of peptide in PBS intraperitoneally. This was repeated every 2 weeks until the 7-8th week, and every 3 weeks thereafter. Mice were monitored for development of hyperglycemia until at least the 28th week of age. The 8.3-CD8+ T-cell tolerogenic activity of APLs was determined by treating 8-15 wk-old 8.3-NOD mice with one i.p. injection of 100 μg of peptide. […] Mice were sacrificed a week after treatment, and their spleens analyzed for presence of 8.3-CD8+ T-cells by flow cytometry.
We next investigated whether the anti-diabetogenic activity of the above APLs was a function of “avidity”, as defined not only by the affinity of individual peptide/MHC complexes for specific TCRs, but also by the absolute number of peptide/MHC complexes that are available for recognition (i.e. dose of peptide). This was done by treating cohorts of female NOD mice with repeated injections of TUM (negative control), NRP-I4, NRP-A7 and NRP-V7 (in PBS) over a wide dose range, and by following the mice for development of diabetes (FIG. 7A, top). Starting at 3-4 weeks of age, mice received one injection of peptide i.p. every 2 (first three doses) or 3 weeks after initiation of treatment. Mice were sacrificed at diabetes onset or at the end of the follow-up period (28-32 weeks), to investigate the effects of treatment on the size and tetramer-binding avidity of the islet-associated IGRP206-214-reactive CD8+ T-cell subpopulation (FIG. 7A, bottom).

8.3-CD8+ T-cells = test: Proliferation and cytokine secretion of naive splenic 8.3-CD8+ T-cells with peptide-pulsed NOD splenocytes; format: cell-based, mouse; conditions: for agonistic activity on 8.3-CD8+ T-cells: FIG. 5, peptide 0.01-1 μM
Experimental: Naïve or NRP-A7-differentiated (see below) splenic CD8+ T-cells from 8.3-NOD mice (2×10^4/well) were incubated, in duplicate, with peptide-pulsed (0.01, 0.1 and 1 μM), γ-irradiated (3,000 rad) NOD splenocytes (10^5/well) for 3 days at 37° C. in 5% CO2. Cultures were pulsed with 1 μCi of (^3H)-thymidine during the last 18 hours of culture and harvested.
as §1

AI15.F5 TCR = test: TCR transfectant peptide recognition, IL-2 release (58 α−β− cells, RMA-S/K^d presenters); format: cell-based, mouse; conditions: FIG. 2
Description: (§2) T cell receptors from the previously isolated NOD-derived β cell-autoreactive class I MHC-restricted T cell clones AI4, AI12.B1.1, AI12.B1.2, AI12.B1.3, AI15.A10, AI15.F5 (DiLorenzo et al., 1998), and 8.3 (Verdaguer et al., 1997) were expressed in the TCR^− T cell hybridoma 58α^−β^− (engineered to express the TCR ζ chain and CD8αβ and provided by H.-C. Chang, Dana Farber, Boston, Mass., USA) as described (Serreze et al., 2001). TCR expression was verified by flow cytometric analysis of growing clones using an antibody to CD3ε (145-2C11). RMA-S/K^d cells incubated overnight at 28° C. were used to present exogenously added synthetic peptides at concentrations as indicated in the figures. Peptide recognition by the TCR transfectants was measured by IL-2 production as previously described (Serreze et al., 2001).

AI12.B1.3 TCR = test: as above; format: cell-based, mouse; conditions: FIG. 2
Description: as §2

8.3 CTL = test: Epitope reconstitution 51Cr-release cytotoxicity assay, peptide-pulsed RMA-S/K^d target cells; format: cell-based, mouse; conditions: peptide-pulsed RMA-S/K^d targets
Experimental: 8.3 CTL were generated by culturing splenocytes from 8.3-NOD mice with mitomycin C-treated NOD splenocytes pulsed with NRP-A7 peptide as described (DiLorenzo et al, 2002). CTL were used in 16 h ^51Cr-release cytotoxicity assays to test for recognition of peptide-pulsed RMA-S/K^d target cells (provided by M. Bevan, University of Washington, Seattle, Wash., USA) at an effector to target ratio of 40:1 as described (DiLorenzo et al., 2002). Synthetic peptides were used at concentrations as indicated in the figures, and 7×10^8, 6×10^8, and 2×10^9 NIT-1-cell-equivalents of peptide were used for assays of first-, second-, and third-dimension HPLC fractions, respectively.

NOD female mice = test: Protection of NOD mice from type 1 diabetes (Example 2); format: in vivo, mouse; conditions: for mice that developed diabetes: 100 micrograms peptide intraperitoneally from 3.5 weeks of age, read at ~25 weeks-old
Experimental: Ten NOD female mice were treated with 100 micrograms of IGRP206-214 peptide (in phosphate-buffered saline) intraperitoneally, starting at 3.5 weeks of age. Forty mice were used as controls. Each control mouse was treated with the TUM peptide ([…] NO:15). The mice received one injection of peptide every two weeks for the first three injections, and then one injection every three weeks thereafter. At 25 weeks-old, two (20%) of the IGRP206-214 mice developed diabetes, vs. 26 control mice ( 65%). […] There were no significant differences in interferon-γ production vs. cells stimulated with the negative control peptide TUM. In one of these two mice, the islets contained T-cells that responded to two IGRP peptides other than IGRP206-214.

H-2K^d = target: T1, H-2K^d (Mus musculus, UniProt P01902); test: H-2K^d stabilization assay on RMA-S/K^d cells (Example 1); format: binding; conditions: FIG. 3, mean fluorescence intensity of H-2K^d
T1 construct: expressed in transfected cells; host or cells: RMA-S/K^d cells
T1 sequence (P01902 22-368): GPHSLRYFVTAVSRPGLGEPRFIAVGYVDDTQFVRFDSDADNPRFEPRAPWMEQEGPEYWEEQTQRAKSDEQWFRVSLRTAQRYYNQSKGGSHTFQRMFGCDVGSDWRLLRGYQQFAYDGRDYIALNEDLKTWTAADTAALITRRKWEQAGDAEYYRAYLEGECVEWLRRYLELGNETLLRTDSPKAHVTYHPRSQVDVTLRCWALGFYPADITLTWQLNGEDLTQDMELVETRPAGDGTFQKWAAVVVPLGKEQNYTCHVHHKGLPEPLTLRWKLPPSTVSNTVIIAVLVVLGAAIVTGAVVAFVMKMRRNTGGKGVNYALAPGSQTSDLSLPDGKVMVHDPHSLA
T1 sequence (P01887 21-119 partner): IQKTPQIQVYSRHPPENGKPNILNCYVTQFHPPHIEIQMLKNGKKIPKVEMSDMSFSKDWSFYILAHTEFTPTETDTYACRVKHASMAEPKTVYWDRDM
Experimental: RMA-S/K^d cells, cultured overnight at 28° C., were pulsed with peptides in complete DMEM for 1 h at 28° C., incubated at 37° C. for 3 h, washed, stained with anti-H-2K^d monoclonal antibody SF1-1.1, counter-stained with FITC-conjugated polyclonal goat anti-mouse antibody, and analyzed by flow cytometry. Data were calculated by subtracting mean fluorescence intensity of H-2K^d on non-peptide-pulsed cells from that on peptide-pulsed cells.

[4] = IFN-γ secretion, Table II, FIG. 10A

half-maximal activity, 51Cr-release assay with 8.3 CTL on peptide-pulsed RMA-S/K^d cells [1]: 50 µM
Substance: 8.3 T cell receptor (TCR)

Substance: SFCKSASIP [peptide 72, text numbering of the IGRP library]
mice with islet CD8+ T-cells responding to the peptide (IFN-γ secretion) [2]: a significant number of mice also mounted responses
presence of peptide-reactive CD8+ T-cells in islets by tetramers [3]: confirmed the presence

Substance: KYNIANWFL [NRP-I4]
anti-diabetogenic activity (female NOD mice; 100 μg/injection): highly anti-diabetogenic
anti-diabetogenic activity (female NOD mice; <20 μg/injection): not protective at all
avidity of NRP-V7 tetramer binding by islet-associated CD8+ cells of treated mice (female NOD mice): significantly lower avidity
protection from diabetes by chronic treatment (discussion summary) (female NOD mice): near complete protection from diabetes
triggering IFN-γ secretion by naive 8.3-CD8+ T-cells (8.3-CD8+ T-cells; FIG. 5): quite efficient
agonistic activity on 8.3-CD8+ T-cells (8.3-CD8+ T-cells): partial agonist
inducing other responses of naive 8.3-CD8+ T-cells (8.3-CD8+ T-cells; FIG. 5, proliferation, IL-2): significantly less efficient than NRP-A7

binding to H-2K^d (H-2K^d): good MEC binding
Substance: VYLKTNVFL [IGRP206-214]
recognition by AI15.F5 (IL-2 release) (AI15.F5 TCR): responded
recognition by AI12.B1.3 (IL-2 release) (AI12.B1.3 TCR): recognized
mice with islet CD8+ T-cells responding to the peptide (IFN-γ secretion) [2]: most mice
recognition by 8.3 CTL (8.3 CTL): is the natural β cell peptide recognized by 8.3
age at onset of diabetes (female NOD mice; 75-100 μg/injection): delayed
incidence of diabetes (female NOD mice; 75-100 μg/injection): did not significantly reduce
intra-islet IGRP206-214-reactive CD8+ T-cell subpopulation (female NOD mice; 75-100 μg/injection, flow cytometry and functional assays): near complete deletion
anti-IGRP206-214 response of islet-derived CD8+ T-cells of treated mice (female NOD mice; [4]): reduced both the frequency and magnitude
T-cell responses against IGRP epitopes of islet-derived CD8+ T-cells of treated mice (female NOD mice; [4]): increased the frequency and magnitude
protection from diabetes by chronic treatment (discussion summary) (female NOD mice): only afforded marginal protection from disease
mice that developed diabetes (NOD female mice): 20%
IGRP206-214-reactive T-cells in islets of treated mice that developed diabetes (NOD female mice; NRP-V7/K^d tetramer staining): did not have IGRP206-214-reactive T-cells in islets

binding to H-2K^d (H-2K^d): improved binding to H-2K^d
Substance: LYLVCGERI [INS-I9]

Substance: KYQAVTTTL [TUM, reference compound]
T-cell responses against IGRP epitopes of islet-derived CD8+ T-cells of treated mice (female NOD mice; [4]): did not significantly increase
absolute number of NRP-V7-reactive T-cells in the islets (female NOD mice): 1×10^5±0.3
mice that developed diabetes (NOD female mice): ~65%

Substance: KYNKANAFL [NRP-A7]
recognition by AI15.F5 (IL-2 release) (AI15.F5 TCR): did not recognize
recognition by AI12.B1.3 (IL-2 release) (AI12.B1.3 TCR): recognized
anti-diabetogenic activity (female NOD mice; 50 μg/injection): protected mice from diabetes
anti-diabetogenic activity (female NOD mice; 100 μg/injection): ineffective
percentages and absolute numbers of NRP-V7-reactive CD8+ cells in the islets (female NOD mice; 100 μg/injection): significantly reduced numbers
absolute number of NRP-V7-reactive T-cells in the islets (female NOD mice): 0.6×10^5±0.3
avidity of NRP-V7 tetramer binding by islet-associated CD8+ cells of treated mice (female NOD mice): accumulation of low avidity IGRP206-214-reactive CD8+ T-cells within islets
protection from diabetes by chronic treatment (discussion summary) (female NOD mice): near complete protection from diabetes
agonistic activity on 8.3-CD8+ T-cells (8.3-CD8+ T-cells): agonist

Substance: LYLVCGERG [INS B15-23]
binding to H-2K^d (H-2K^d): barely detectable even at the highest peptide concentration tested

Substance: KYCLITIFL [G6Pase, reference compound]
recognition by 8.3 CTL (8.3 CTL): not recognized by 8.3 CTL

Substance: YLKTNVFLF [IGRP207-215]
mice with islet CD8+ T-cells responding to the peptide (IFN-γ secretion) [2]: most mice
cross-reactivity with IGRP206-214, ability to elicit 8.3-CD8+ T-cell responses (8.3-CD8+ T-cells; data not shown): cross-reactive with IGRP206-214

Substance: TYYGFLNFM [peptide 39, text numbering of the IGRP library]
mice with islet CD8+ T-cells responding to the peptide (IFN-γ secretion) [2]: a significant number of mice also mounted responses
presence of peptide-reactive CD8+ T-cells in islets by tetramers [3]: confirmed the presence
